How the values were obtained:
[1] = system: maximum electroshock seizure (MES) model; assay: Maximum electroshock seizure (MES) model test; type: in vivo, mice; settings: for responders at 100 mg/kg / responders at 50 mg/kg: Mus musculus, po, 1 h, read-out: MES (positive number/tested number) (converted); for responders at 100 mg/kg: 100 mg/kg oral; for anticonvulsant action in maximum electroshock seizure (MES) model test: mice, oral 50 or 100 mg/kg, 1 hour after administration
From the text: In order to evaluate the antiepileptic activity of each drug, maximum electroshock seizure (MES) model, subcutaneously pentetrazol-injected model (scPTZ), and amygdala kindling model in rats were used because they show a good clinical prediction.
Test 1: Test with Maximum Electroshock Seizure (MES) Model
Test 1 evaluates the anticonvulsant action of medicaments. Animal model used herein represents the clinical phenotypes of generalized tonic seizure and secondarily generalized tonic-clonic seizure. Test compounds (50 or 100 mg/kg) were orally administered to Slc: ddY male mice (3 mice in each group, body weight 20-30 g). After an hour of administration, their corneas were electrically stimulated (60 Hz, 25 mA, 0.2 second) to induce tonic convulsion (tonic extensor in their hind limbs). […] To the control mice, 0.5% tragacanth solution or 0.5% methylcellulose solution was administered.

[2] = system: subcutaneously pentetrazol-injected model (scPTZ); assay: Subcutaneously pentetrazol-injected model (scPTZ) test; type: in vivo, mice; settings: pentetrazol 85 mg/kg s.c. after 1 hour; for responders at 50 mg/kg / responders at 100 mg/kg: Mus musculus, po, 1 h, read-out: scPTZ (positive number/tested number) (converted); for responders at 50 mg/kg / responders at 100 mg/kg / scPTZ (positive number/tested number): Slc: ddY male mice, 3 per group, observed 30 minutes for clonic convulsion; for anticonvulsant action in subcutaneously pentetrazol-injected model (scPTZ) test: mice, oral 50 or 100 mg/kg
From the text: In order to evaluate the antiepileptic activity of each drug, maximum electroshock seizure (MES) model, subcutaneously pentetrazol-injected model (scPTZ), and amygdala kindling model in rats were used because they show a good clinical prediction. […] Test with Subcutaneously Pentetrazol-Injected Model (scPTZ) Similar to Test 1, Test 2 evaluates the anticonvulsant action of medicaments. However, unlike Test 1, animal model used herein represents the clinical phenotypes of generalized absence seizure and myoclonic seizure. Test compounds (50 or 100 mg/kg) were orally administered to Slc: ddY male mice (3 mice in each group, body weight 20-30 g). After an hour, pentetrazol (85 mg/kg) was subcutaneously administered. […] To the control mice, 0.5% tragacanth solution or 0.5% methylcellulose solution was administered.

[3] = Slc: ddY male mice, 3 per group, electrical stimulation 1 hour after administration, inhibition of hind limb extension
[4] = 50 mg/kg oral, Slc: ddY male mice, 3 per group, electrical stimulation 1 hour after administration, inhibition of hind limb extension

SMILES	responders at 100 mg/kg [1, 3] [%]	responders at 50 mg/kg ([2]; 50 mg/kg oral) [%]	responders at 100 mg/kg ([2]; 100 mg/kg oral) [%]	responders at 50 mg/kg [1, 4] [%]	MES (positive number/tested number) [1, 4]	scPTZ (positive number/tested number) ([2]; 50 mg/kg oral)	scPTZ (positive number/tested number) ([2]; 100 mg/kg oral)	anticonvulsant action in maximum electroshock seizure (MES) model test [1]	anticonvulsant action in subcutaneously pentetrazol-injected model (scPTZ) test [2]
CNC(=O)Cc1ccc(F)cc1-c1ccccc1F [Example 42]	33.3	33.3	66.7						
NC(=O)Cc1cc(Cl)ccc1-c1ccccc1 [Example 35]	66.7		0	0					
NC(=O)C(O)c1ccccc1-c1ccccc1Cl (single isomer, unassigned) [Example 220, 2-(2′-chlorobiphenyl-2-yl)-2-hydroxyacetamide]	100	33.3	100	100					
CNC(=O)C(F)(F)c1ccccc1-c1ccccc1 [Example 168]	100		33.3	33.3					
NC(=O)C(O)c1ccccc1-c1cc(F)cc(Cl)c1 (single isomer, unassigned) [Example 218, 2-(3′-Chloro-5′-fluorobiphenyl-2-yl)-2-hydroxyacetamide]	100				1/3	1/3	2/3		
NC(=O)Cc1ccccc1-c1cccc(Cl)c1F [Example 85]	100		33.3						
NC(=O)Cc1ccccc1-c1cc(F)c(F)c(F)c1 [Example 90, 2-(3′,4′,5′-trifluorobiphenyl-2-yl)acetamide]	66.7	66.7	66.7	66.7				anticonvulsant action was observed	anticonvulsant action was observed
COC(C(=O)N(C)C)c1ccccc1-c1ccccc1 (stereo not shown) [Example 63, 2-(biphenyl-2-yl)-2-methoxy-N,N-dimethylacetamide]	66.7	33.3	66.7	0					
CNC(=O)Cc1ccccc1-c1cccc(OC(F)(F)F)c1 [Example 99, N-methyl-2-[3′-(trifluoromethoxy)biphenyl-2-yl]acetamide]	100		33.3	66.7					
NC(=O)Cc1ccccc1-c1cccc(C(F)(F)F)c1 [Example 4, 2-[3′-(trifluoromethyl)biphenyl-2-yl]acetamide]	66.7	0	66.7	0					
CNC(=O)Cc1cc(F)ccc1-c1ccccc1F [Example 47, 2-(2′,4-difluorobiphenyl-2-yl)-N-methylacetamide]	100		0	100					
CNC(=O)C(C)c1ccccc1-c1cccc(F)c1 (stereo not shown) [Example 176]	33.3		0						
CNC(=O)Cc1ccc(C(F)(F)F)cc1-c1ccccc1 [Example 33]	66.7		33.3	33.3					
CN(C)C(=O)Cc1ccccc1-c1ccc(C(F)(F)F)cc1 [Example 3, N,N-dimethyl-2-[4′-(trifluoromethyl)biphenyl-2-yl]acetamide]	100		33.3	100					
CNC(=O)C(F)c1ccccc1-c1ccccc1F (stereo not shown) [Example 165, 2-fluoro-2-(2′-fluorobiphenyl-2-yl)-N-methylacetamide]	100		33.3	66.7					
NC(=O)C(O)c1cc(F)ccc1-c1ccccc1 (stereo not shown) [Example 186, 2-(4-fluorobiphenyl-2-yl)-2-hydroxyacetamide]	100	66.7	66.7	100				anticonvulsant action was observed	anticonvulsant action was observed

SMILES	responders at 100 mg/kg [1, 3] [%]	responders at 50 mg/kg ([2]; 50 mg/kg oral) [%]	responders at 100 mg/kg ([2]; 100 mg/kg oral) [%]	responders at 50 mg/kg [1, 4] [%]	MES (positive number/tested number) [1, 4]	scPTZ (positive number/tested number) ([2]; 50 mg/kg oral)	scPTZ (positive number/tested number) ([2]; 100 mg/kg oral)	anticonvulsant action in maximum electroshock seizure (MES) model test [1]	anticonvulsant action in subcutaneously pentetrazol-injected model (scPTZ) test [2]
NC(=O)Cc1ccccc1-c1ccc(Br)cc1 [Example 49, 2-(4′-Bromobiphenyl-2-yl)acetamide]	66.7	0	66.7	0					
O=C(Cc1ccccc1-c1ccccc1F)NC1CC1 [Example 172]	100		0						
CNC(=O)Cc1ccccc1-c1ccc(Br)cc1 [Example 53, 2-(4′-Bromobiphenyl-2-yl)-N-methylacetamide]	100		0	66.7					
NC(=O)Cc1ccccc1-c1ccc(Cl)c(F)c1 [Example 66]	66.7		33.3						
CNC(=O)C(OC)c1ccccc1-c1ccccc1F (stereo not shown) [Example 201, 2-(2′-fluorobiphenyl-2-yl)-2-methoxy-N-methylacetamide]	66.7	33.3	66.7	33.3					
NC(=O)C(F)(F)c1ccccc1-c1cccc(Cl)c1 [Example 171, 2-(3′-chlorobiphenyl-2-yl)-2,2-difluoroacetamide]	100	33.3	100	100					
NC(=O)Cc1cc(F)c(F)cc1-c1ccccc1 [Example 110]	66.7		33.3	0					
CCNC(=O)Cc1cc(Cl)ccc1-c1ccccc1 [Example 37]	0		33.3						
NC(=O)C(O)c1ccccc1-c1cc(Cl)ccc1F (stereo not shown) [Example 194, 2-(5′-chloro-2′-fluorobiphenyl-2-yl)-2-hydroxyacetamide]	100	33.3	66.7	33.3					
CNC(=O)Cc1cc(F)ccc1-c1ccc(Cl)cc1 [Example 132]	100		0						
NC(=O)Cc1ccccc1-c1ccc(OC(F)(F)F)c(F)c1 [Example 70, 2-[3′-fluoro-4′-(trifluoromethoxy)biphenyl-2-yl]acetamide]	100	66.7	66.7	33.3					
NC(=O)C(O)c1ccc(F)cc1-c1ccccc1 (stereo not shown) [Example 181, 2-(5-fluorobiphenyl-2-yl)-2-hydroxyacetamide]	100	0	66.7	33.3					
COC(C(=O)N(C)C)c1ccccc1-c1ccc(F)cc1 (stereo not shown) [Example 205, 2-(4′-fluorobiphenyl-2-yl)-2-methoxy-N,N-dimethylacetamide]	100	33.3	66.7	0					
COC(C(=O)N(C)C)c1ccccc1-c1ccccc1F (stereo not shown) [Example 202, 2-(2′-fluorobiphenyl-2-yl)-2-methoxy-N,N-dimethylacetamide]	66.7	0	100	33.3					
CSc1cccc(-c2ccccc2CC(N)=O)c1 [Example 94]			33.3						

Source: patent publication US20120142771A1, “BIPHENYLACETAMIDE DERIVATIVE” (Dainippon Sumitomo Pharma Co., Ltd., priority 2008, published 2012)
